# Laboratory results taken from patent US20050187240A1, “Aaptamine and isoaaptamine and structural modifications thereof” (The Arizona Board of Regents, Acting for and on behalf of …, priority 2004, published 2005).
# Structures can show the parent of a compound that is named as a salt. Where two headings read alike, the source gives them in different places.
# Key:
# [1] = system: murine P388 lymphocytic leukemia cell line; experiment: Cancer cell growth inhibition, murine P388 lymphocytic leukemia cell line; format: cell-based; conditions: for IC50: Mus musculus
# Excerpt: (§1) Evaluation of demethyloxyaaptamine (3), aaptamine (1), isoaaptamine (2) and hystatin 1 (11) against the Arizona State University Cancer Research Institute's human tumor cell line panel (Table 1) and the NCI 60-cell line human tumor screen were undertaken. (Boyd, M. R., Cancer: Principles and Practices of Oncology Updates; DeVita, et al., Eds; Lippincott: Philadelphia, 1989, Vol. 10, No. 3, pp. 1-12; Boyd, et al., Drug Development Research 1995, 34, 91-109; Boyd, M. R., et al. Cytotoxic Anticancer Drugs: Models and Concepts for Drug Discovery and Development; Valeriote, A., et al., Eds, Kluwer Academic Publishers: Amsterdam, 1992, pp. 11-34.)
# (§2) Biology The cancer cell growth inhibitory properties were examined using the murine P388 lymphocytic leukemia cell line and a selection of human cancer cell lines.
# (§3) All of the synthetic products were evaluated against a minipanel of human cancer cell lines, the murine P388 lymphocytic leukemia cell line and a selection of microorganisms.
# [2] = system: lung NCI-H460; experiment: Cancer cell growth inhibition, lung NCI-H460; format: cell-based, human; conditions: Homo sapiens, lung NCI-H460
# Excerpt: as §1, §2, §3
# [3] = system: colon KM 20L2; experiment: Cancer cell growth inhibition, colon KM 20L2; format: cell-based, human; conditions: Homo sapiens, colon KM 20L2
# Excerpt: as §1, §2, §3
# [4] = system: pancreas BXPC-3; experiment: Cancer cell growth inhibition, pancreas BXPC-3; format: cell-based, human; conditions: Homo sapiens, pancreas BXPC-3
# Experimental: as §2, §3
# [5] = system: breast MCF-7; experiment: Cancer cell growth inhibition, breast MCF-7; format: cell-based, human; conditions: Homo sapiens, MCF7, breast MCF-7
# Experimental: as §2, §3
# [6] = system: CNS SF-268; experiment: Cancer cell growth inhibition, CNS SF-268; format: cell-based, human; conditions: Homo sapiens, CNS SF-268
# Experimental: as §2, §3
# [7] = system: prostrate DU-145; experiment: Cancer cell growth inhibition, prostate DU-145; format: cell-based, human; conditions: Homo sapiens
# Experimental: as §2, §3
# [8] = system: Cryptococcus neoformans; experiment: Broth microdilution susceptibility assay, Cryptococcus neoformans; format: cell-based; conditions: for MIC: Table 4, read-out: Range of minimum inhibitory concentration
# [9] = system: Candida albicans; experiment: Broth microdilution susceptibility assay, Candida albicans; format: cell-based; conditions: for MIC: Table 4, read-out: Range of minimum inhibitory concentration
# [10] = system: Staphylococcus aureus; experiment: Broth microdilution susceptibility assay, Staphylococcus aureus; format: cell-based; conditions: for MIC: Table 4, read-out: Range of minimum inhibitory concentration
# [11] = system: Streptococcus pneumoniae; experiment: Broth microdilution susceptibility assay, Streptococcus pneumoniae; format: cell-based; conditions: for MIC: Table 4, read-out: Range of minimum inhibitory concentration
# [12] = system: Enterococcus faecalis; experiment: Broth microdilution susceptibility assay, Enterococcus faecalis; format: cell-based; conditions: Table 4, read-out: Range of minimum inhibitory concentration
# [13] = system: Micrococcus luteus; experiment: Broth microdilution susceptibility assay, Micrococcus luteus; format: cell-based; conditions: for MIC: Table 4, read-out: Range of minimum inhibitory concentration
# [14] = system: Escherichia coli; experiment: Broth microdilution susceptibility assay, Escherichia coli; format: cell-based; conditions: for MIC: Table 4, read-out: Range of minimum inhibitory concentration
# [15] = system: Enterobacter cloacae; experiment: Broth microdilution susceptibility assay, Enterobacter cloacae; format: cell-based; conditions: Table 4, read-out: Range of minimum inhibitory concentration
# [16] = system: Stenotrophomonas maltophilia; experiment: Broth microdilution susceptibility assay, Stenotrophomonas maltophilia; format: cell-based; conditions: for MIC: Table 4, Stenotrophomonas maltophil, read-out: Range of minimum inhibitory concentration
# [17] = system: Neisseria gonorrhoeae; experiment: Broth microdilution susceptibility assay, Neisseria gonorrhoeae; format: cell-based; conditions: for MIC: Table 4, read-out: Range of minimum inhibitory concentration
# [18] = molecular target: PKC alpha (Homo sapiens, UniProt P17252); experiment: Inhibition of PKC catalytic activity (peptide substrate phosphorylation); format: biochemical; conditions: 30 μM compound; 1 μM phorbol 12-myristate 13-acetate, 100 μg/ml phospholipid; mean±SEM, three experiments; read-out: percent inhibition of PKC catalytic activity
# Excerpt: We further evaluated the ability of the derivatives to inhibit PKC catalytic activity. […] Inhibition by 10c was 19.5±7.6% and inhibition by 4, 5, and 9a, b, c was 6% or less (all values are mean±SEM, three experiments). […] In both cases, the inhibition curves were steeper than predicted for a competitive inhibitor, consistent with a complicated mechanism of action (Hill coefficients for 10a and 10b of 1.5±0.1 and 2.0±0.5, respectively).
# [19] = P388, Table 3, leukemia P-388, read-out: Cancer cell growth inhibitory ED50
# [20] = Table 5, leukemia P388, read-out: Cancer Cell Line Results ED50
# [21] = Table 3, read-out: Cancer cell growth inhibitory ED50
# [22] = Table 5, read-out: Cancer Cell Line Results ED50
# [23] = DU-145, Table 5, prostate DRU-145, read-out: Cancer Cell Line Results ED50
# [24] = Table 3, prostrate DU-145, read-out: Cancer cell growth inhibitory ED50
"IC50 [1, 20] [µg/mL]","IC50 [2, 22] [µg/mL]","IC50 [3, 22] [µg/mL]","IC50 [4, 22] [µg/mL]","IC50 [5, 22] [µg/mL]","IC50 [6, 22] [µg/mL]","IC50 [7, 23] [µg/mL]",Structure (SMILES),melting point,"IC50 [1, 19] [µg/mL]","IC50 [2, 21] [µg/mL]","IC50 [3, 21] [µg/mL]","IC50 [4, 21] [µg/mL]","IC50 [5, 21] [µg/mL]","IC50 [6, 21] [µg/mL]","IC50 [7, 24] [µg/mL]",MIC [8] [µg/mL],MIC [9] [µg/mL],MIC [10] [µg/mL],MIC [11] [µg/mL],MIC [12] [µg/mL],other results
,,,,,,,"Oc1cc2ccnc3c2c(c1O)NC=C3 (as salt: hydrobromid) [Compound 15, 8,9-Dihydroxy-1H-Benzo[de][1,6]naphthyridine hydrobromide]",245 to 248 °C (dec.),,,,,,,,,,,,,
3.89,> 10,6.1,7.1,4.9,0.69,3.5,"COc1cc2c3c(cc[n+](C)c3c1OC)N(C)C=C2.[I-] [Compound 5, 1,4-Dimethyl-8,9-dimethoxy-4H-benzo-[de][1,6]naphthyridin-1-ium iodide]",,3.9,> 10,6.1,7.1,4.9,0.69,3.5,> 64,> 64,> 64,> 64,> 64,P388 ED50 ([1]; murine P388): 3.9 µg/mL; MIC [13]: 16 to 32 µg/mL; MIC [14]: > 64 µg/mL; MIC [15]: > 64 µg/mL; MIC [16]: > 64 µg/mL; MIC [17]: > 64 µg/mL; inhibition at 30 µM [18]: ≤ 6%
,,,,,,,"COc1cc2c3c(ccnc3c1O)N(C)C=C2 [Compound 8, 4-Methyl-8-methoxy-9-hydroxy-4H-benzo[de][1,6]naphthyridine]",,> 10,> 10,> 10,> 10,> 10,> 10,> 10,> 64,> 64,> 64,> 64,> 64,MIC [13]: > 64 µg/mL; MIC [14]: > 64 µg/mL; MIC [15]: > 64 µg/mL; MIC [16]: > 64 µg/mL; MIC [17]: 4 µg/mL
4.64,> 10,3.4,> 10,> 10,> 10,> 10,"COc1cc(CN2C=Cc3cc(OC)c(OC)c4nccc2c34)cc(OC)c1OC.Cl [Compound 9c, 8,9-Dimethoxy-4-(3,4,5-trimethoxybenzyl)-4H-benzo[de][1,6]naphthyridine hydrochloride]",198 to 200 °C (dec.),,,,,,,,,,,,,Range of minimum inhibitory concentration ([8]; Table 6): * (no inhibition at 64 μg/mL); Range of minimum inhibitory concentration ([9]; Table 6): * (no inhibition at 64 μg/mL); Range of minimum inhibitory concentration ([10]; Table 6): * (no inhibition at 64 μg/mL); Range of minimum inhibitory concentration ([11]; Table 6): * (no inhibition at 64 μg/mL); Range of minimum inhibitory concentration ([13]; Table 6): * (no inhibition at 64 μg/mL); Range of minimum inhibitory concentration ([14]; Table 6): * (no inhibition at 64 μg/mL); Range of minimum inhibitory concentration ([16]; Table 6): * (no inhibition at 64 μg/mL); Range of minimum inhibitory concentration ([17]; Table 6): 64 µg/mL; inhibition at 30 µM [18]: ≤ 6%
